Reference: patent US8202865B2, “Oxadiazole derivatives” (Merck Serono SA, priority 2007, dated 2012)
Where a name gives a salt, the structure may show the parent alone.

Experiments:
[1] = target: T1, S1P1 (Homo sapiens, UniProt P21453); test: Receptor binding assay, [33P]sphingosine 1-phosphate, membranes, WGA SPA beads; details: membranes from CHO cells expressing S1P1; 25 pM [33P]S1P; 60 min RT
T1 construct: expressed in transfected cells; host or cells: CHO cells (membranes)
How it was run: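 CHO-cell membranes expressing S1P1 incubated with 25 pM [33P]S1P in 50 mM HEPES pH 7.5, 5 mM MgCl2, 100 mM NaCl, 0.4% fatty acid-free BSA with WGA SPA beads for 60 min at RT. Bound radioactivity counted by scintillation proximity; specific binding defined using 1000-fold excess unlabeled S1P.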

[2] = target: T1, S1P1; test: 35S-GTPγS binding, S1P1 membranes; assay type: biochemical; details: membranes from CHO cells expressing S1P1; 60 min 30° C.
How it was run: (§1)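 CHO-cell membranes expressing S1P1 or S1P3 (1-10 μg) incubated with compounds in 20 mM HEPES pH 7.4, 10 mM MgCl2, 140 mM NaCl, saponin, 0.2% BSA, 1.7 μM GDP and [35S]-GTPγS (20 μl of 1.5 nM added), 60 min at 30° C. Bound radioactivity expressed as % of S1P activation.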

[3] = target: T2, S1P3 (Homo sapiens, UniProt Q99500); test: 35S-GTPγS binding, S1P3 membranes; assay type: biochemical; details: membranes from CHO cells expressing S1P3; 60 min 30° C.
T2 construct: expressed in transfected cells; host or cells: CHO cells (membranes)
How it was run: as §1

T1 sequence (P21453 whole entry, species assumed): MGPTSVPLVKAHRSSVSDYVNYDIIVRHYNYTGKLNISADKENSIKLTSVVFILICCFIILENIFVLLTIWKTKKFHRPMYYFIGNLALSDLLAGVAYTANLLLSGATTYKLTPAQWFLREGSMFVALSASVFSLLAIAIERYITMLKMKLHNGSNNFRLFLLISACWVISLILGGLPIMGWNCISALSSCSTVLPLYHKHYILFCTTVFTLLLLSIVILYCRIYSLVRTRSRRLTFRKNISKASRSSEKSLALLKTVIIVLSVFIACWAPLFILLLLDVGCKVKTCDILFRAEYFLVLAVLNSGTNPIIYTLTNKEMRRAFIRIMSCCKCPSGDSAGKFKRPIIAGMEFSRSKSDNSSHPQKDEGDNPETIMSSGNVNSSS
T2 sequence (Q99500 whole entry, species assumed): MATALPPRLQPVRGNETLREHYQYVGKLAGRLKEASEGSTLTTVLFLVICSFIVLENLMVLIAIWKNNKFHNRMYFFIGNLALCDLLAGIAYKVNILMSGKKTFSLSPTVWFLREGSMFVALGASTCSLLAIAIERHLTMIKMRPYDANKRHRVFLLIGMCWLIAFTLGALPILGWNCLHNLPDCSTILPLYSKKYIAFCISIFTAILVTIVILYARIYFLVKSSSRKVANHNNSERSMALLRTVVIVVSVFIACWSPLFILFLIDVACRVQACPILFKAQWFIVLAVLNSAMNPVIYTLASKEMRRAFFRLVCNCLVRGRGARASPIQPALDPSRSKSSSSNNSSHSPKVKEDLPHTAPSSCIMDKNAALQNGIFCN

SMILES	Ki [1] [nM]	EC50 [2] [nM]	EC50 [3] [nM]
COCc1cc(-c2nc(-c3cccc(CN(C)CC(=O)O)c3)no2)ccc1-c1ccccc1C [Example 141, N-(3-{5-[2-(methoxymethyl)-2′-methylbiphenyl-4-yl]-1,2,4-oxadiazol-3-yl}benzyl)-N-methylglycine, Hydrochloride salt]	1.4	0.85	621
Cc1ccccc1-c1ccc(-c2nc(-c3ccc(C(=O)O)c(F)c3)no2)cc1COC(C)C [Example 59, 2-fluoro-4-{5-[2-(isopropoxymethyl)-2′-methylbiphenyl-4-yl]-1,2,4-oxadiazol-3-yl}benzoic acid]	182	286	767
CCCS(=O)(=O)Nc1cc(-c2nc(-c3ccc(C(=O)O)c(F)c3)no2)ccc1N1CCCCC1C (stereo not drawn) [Example 74, 2-fluoro-4-(5-{4-(2-methylpiperidin-1-yl)-3-[(propylsulfonyl)amino]phenyl}-1,2,4-oxadiazol-3-yl)benzoic acid]	443	408	1770
CC1CCCCN1c1ccc(-c2nc(-c3ccc(C(=O)O)c(F)c3)no2)cc1NS(=O)(=O)N(C)C (stereo not drawn) [Example 73, 4-{5-[3-{[(dimethylamino)sulfonyl]amino}-4-(2-methylpiperidin-1-yl)phenyl]-1,2,4-oxadiazol-3-yl}-2-fluorobenzoic acid]	213	122	2000
COCc1cc(-c2nc(-c3ccc(C(N)=O)cc3)no2)ccc1-c1ccccc1C [Example 178, 4-{5-[2-(methoxymethyl)-2′-methylbiphenyl-4-yl]-1,2,4-oxadiazol-3-yl}benzamide]	1	4.8	141
Cc1ccccc1-c1ccc(-c2nc(-c3ccc(C(N)=O)c(F)c3)no2)cc1C [Example 171, 4-[5-(2,2′-dimethylbiphenyl-4-yl)-1,2,4-oxadiazol-3-yl]-2-fluorobenzamide]	39	19	> 20000
CCS(=O)(=O)Nc1cc(-c2nc(-c3ccc(C(=O)O)c(F)c3)no2)ccc1N1CCCCC1C (stereo not drawn) [Example 67, 4-{5-[3-[(ethylsulfonyl)amino]-4-(2-methylpiperidin-1-yl)phenyl]-1,2,4-oxadiazol-3-yl}-2-fluorobenzoic acid]	67	72	1750
CCc1ccccc1-c1ccc(-c2nc(-c3ccc(F)c(CN(C)CC(=O)O)c3)no2)cc1COC [Example 147, N-(5-{5-[2′-ethyl-2-(methoxymethyl)biphenyl-4-yl]-1,2,4-oxadiazol-3-yl}-2-fluorobenzyl)-N-methylglycine, Hydrochloride salt]	2	1.5	754
COCc1cc(-c2nc(-c3ccc(C(=O)O)c(F)c3)no2)ccc1-c1ccccc1C(F)(F)F [Example 86, 2-fluoro-4-{5-[2-(methoxymethyl)-2′-(trifluoromethyl)biphenyl-4-yl]-1,2,4-oxadiazol-3-yl}benzoic acid]	48	155	> 20000
COCc1cc(-c2nc(-c3cccc(CN(C)CCC(=O)O)c3)no2)ccc1-c1ccccc1C [Example 150, N-(3-{5-[2-(methoxymethyl)-2′-methylbiphenyl-4-yl]-1,2,4-oxadiazol-3-yl}benzyl)-N-methyl-beta-alanine]	0.3	0.5	95
CC1CCCCN1c1ccc(-c2nc(-c3ccc(OCC(=O)O)c(F)c3)no2)cc1C(F)(F)F (stereo not drawn) [Example 47, (2-fluoro-4-{5-[4-(2-methylpiperidin-1-yl)-3-(trifluoromethyl)phenyl]-1,2,4-oxadiazol-3-yl}phenoxy)acetic acid]	4	40	1000
